Columns and labels:
[1] = Oral bioavailability in rat at 2 mg/kg; format: ADME, organism-based; conditions: in vivo
[2] = target: Phosphatidylinositol 4,5-bisphosphate 3-kinase catalytic subunit gamma isoform (Homo sapiens, UniProt P48736); experiment: biochemical
Description: Inhibition of human N-terminal poly-His tagged-PI3Kgamma expressed in Sf9 baculovirus system co-expressing p85alpha after 20 mins by AlphaScreen assay

in vivo [3] = conditions: rat, iv, 1 mg/kg
Description: Clearance in rat at 1 mg/kg, iv

in vivo [4] = conditions: rat, iv, 1 mg/kg; remark: listed apart in the source
Description: Mean residence time in rat at 1 mg/kg, iv

in vivo [5] = conditions: rat, iv, 1 mg/kg; remark: listed apart in the source
Description: Volume of distribution at steady state in rat at 1 mg/kg, iv

[6] = target: Phosphatidylinositol 4,5-bisphosphate 3-kinase catalytic subunit beta isoform (Homo sapiens, UniProt P42338); experiment: biochemical
Sequence of Phosphatidylinositol 4,5-bisphosphate 3-kinase catalytic subunit beta isoform (P42338 whole entry, canonical isoform): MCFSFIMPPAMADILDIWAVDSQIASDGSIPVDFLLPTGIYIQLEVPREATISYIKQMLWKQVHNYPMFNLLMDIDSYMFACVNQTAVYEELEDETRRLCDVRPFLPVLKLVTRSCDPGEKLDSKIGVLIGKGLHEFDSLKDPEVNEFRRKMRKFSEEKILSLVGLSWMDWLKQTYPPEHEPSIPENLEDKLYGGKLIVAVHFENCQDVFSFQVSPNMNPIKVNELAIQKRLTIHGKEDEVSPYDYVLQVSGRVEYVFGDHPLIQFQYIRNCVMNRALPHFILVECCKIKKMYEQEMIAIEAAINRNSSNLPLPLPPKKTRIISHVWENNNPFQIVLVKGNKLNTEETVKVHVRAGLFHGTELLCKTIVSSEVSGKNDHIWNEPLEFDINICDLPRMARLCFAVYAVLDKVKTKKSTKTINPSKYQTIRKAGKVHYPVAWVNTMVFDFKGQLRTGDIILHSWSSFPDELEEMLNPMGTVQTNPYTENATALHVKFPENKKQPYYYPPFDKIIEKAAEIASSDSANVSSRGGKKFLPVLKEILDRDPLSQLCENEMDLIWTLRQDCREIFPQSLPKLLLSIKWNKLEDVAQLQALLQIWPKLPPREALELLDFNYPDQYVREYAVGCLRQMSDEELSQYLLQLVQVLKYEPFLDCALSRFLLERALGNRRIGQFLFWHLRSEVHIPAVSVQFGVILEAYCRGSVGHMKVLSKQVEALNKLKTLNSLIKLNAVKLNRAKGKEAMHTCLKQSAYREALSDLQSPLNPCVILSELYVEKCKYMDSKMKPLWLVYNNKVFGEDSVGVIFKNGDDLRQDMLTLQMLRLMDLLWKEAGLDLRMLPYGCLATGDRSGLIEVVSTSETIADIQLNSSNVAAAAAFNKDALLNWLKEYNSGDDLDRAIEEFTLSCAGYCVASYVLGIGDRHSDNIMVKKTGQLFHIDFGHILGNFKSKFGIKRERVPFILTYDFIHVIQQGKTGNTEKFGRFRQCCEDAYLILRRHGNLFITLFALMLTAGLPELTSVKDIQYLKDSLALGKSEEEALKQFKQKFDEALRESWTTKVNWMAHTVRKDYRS
Description: Inhibition of human N-terminal poly-His tagged-PI3Kbeta expressed in Sf9 baculovirus system co-expressing p85alpha after 20 mins by AlphaScreen assay

in vivo [7] = conditions: rat, plasma, po, 2 mg/kg
in vitro = conditions: rat, liver microsomes
Description: Intrinsic clearance in rat liver microsomes

[8] = target: T1, Phosphatidylinositol 4,5-bisphosphate 3-kinase catalytic subunit delta isoform (Homo sapiens, UniProt O00329); experiment: biochemical
T1 sequence (O00329 whole entry): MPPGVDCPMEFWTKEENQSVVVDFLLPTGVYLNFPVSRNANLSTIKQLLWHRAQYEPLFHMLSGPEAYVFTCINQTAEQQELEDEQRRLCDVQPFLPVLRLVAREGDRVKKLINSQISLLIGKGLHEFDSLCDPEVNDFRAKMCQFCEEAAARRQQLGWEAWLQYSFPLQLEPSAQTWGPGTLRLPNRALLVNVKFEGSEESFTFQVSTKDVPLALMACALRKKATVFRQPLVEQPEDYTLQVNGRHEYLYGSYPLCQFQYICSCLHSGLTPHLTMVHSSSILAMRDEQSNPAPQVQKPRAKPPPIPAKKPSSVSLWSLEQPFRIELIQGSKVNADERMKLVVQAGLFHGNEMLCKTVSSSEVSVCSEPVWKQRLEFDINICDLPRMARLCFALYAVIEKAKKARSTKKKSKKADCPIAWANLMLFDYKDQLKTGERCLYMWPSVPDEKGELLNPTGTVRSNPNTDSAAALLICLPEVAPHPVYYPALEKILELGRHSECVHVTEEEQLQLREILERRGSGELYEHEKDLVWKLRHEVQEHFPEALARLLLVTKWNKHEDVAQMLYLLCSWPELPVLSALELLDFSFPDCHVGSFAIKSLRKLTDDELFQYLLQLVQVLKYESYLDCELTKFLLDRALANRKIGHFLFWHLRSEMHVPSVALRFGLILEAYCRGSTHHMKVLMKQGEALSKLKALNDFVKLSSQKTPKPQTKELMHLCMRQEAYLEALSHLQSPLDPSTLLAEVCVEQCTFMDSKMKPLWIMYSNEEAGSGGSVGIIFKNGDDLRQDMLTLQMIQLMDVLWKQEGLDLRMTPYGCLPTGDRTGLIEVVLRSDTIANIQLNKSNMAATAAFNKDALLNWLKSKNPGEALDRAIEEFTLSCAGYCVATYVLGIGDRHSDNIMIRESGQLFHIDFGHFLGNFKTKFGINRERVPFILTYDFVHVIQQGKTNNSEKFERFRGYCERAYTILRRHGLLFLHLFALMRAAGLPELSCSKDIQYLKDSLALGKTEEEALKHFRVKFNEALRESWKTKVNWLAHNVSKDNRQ
Description: Inhibition of human N-terminal poly-His tagged-PI3Kdelta expressed in Sf9 baculovirus system co-expressing p85alpha after 20 mins by AlphaScreen assay

[9] = target: Serine/threonine-protein kinase mTOR (Homo sapiens, UniProt P42345)
Description: Inhibition of recombinant GST-tagged mTOR-mediated 4EBP1 phosphorylation after 90 mins by FRET assay

[10] = target: Serine/threonine-protein kinase B-raf (Homo sapiens, UniProt P15056, V600E)
Sequence of Serine/threonine-protein kinase B-raf (P15056 2-766 V600E limits assumed): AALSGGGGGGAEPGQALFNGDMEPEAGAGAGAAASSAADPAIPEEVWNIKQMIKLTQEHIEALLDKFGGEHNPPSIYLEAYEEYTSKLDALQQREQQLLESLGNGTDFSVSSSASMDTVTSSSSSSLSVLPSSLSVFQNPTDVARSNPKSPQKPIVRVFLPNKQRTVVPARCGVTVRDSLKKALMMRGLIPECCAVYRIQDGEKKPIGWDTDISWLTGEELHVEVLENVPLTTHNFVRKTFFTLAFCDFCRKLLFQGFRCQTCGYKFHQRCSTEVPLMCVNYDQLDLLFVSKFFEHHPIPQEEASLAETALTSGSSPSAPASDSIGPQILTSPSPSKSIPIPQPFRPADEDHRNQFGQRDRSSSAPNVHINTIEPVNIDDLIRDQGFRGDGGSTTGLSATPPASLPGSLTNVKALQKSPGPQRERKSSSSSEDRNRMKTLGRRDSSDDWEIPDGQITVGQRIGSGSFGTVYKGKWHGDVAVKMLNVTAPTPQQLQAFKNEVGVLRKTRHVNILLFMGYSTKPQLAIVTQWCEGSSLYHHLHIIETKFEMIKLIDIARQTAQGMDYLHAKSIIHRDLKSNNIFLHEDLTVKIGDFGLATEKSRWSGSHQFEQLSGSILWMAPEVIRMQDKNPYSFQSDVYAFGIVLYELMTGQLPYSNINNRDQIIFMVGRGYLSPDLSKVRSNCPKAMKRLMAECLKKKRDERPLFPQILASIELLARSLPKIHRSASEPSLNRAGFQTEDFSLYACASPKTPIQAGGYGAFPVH

[11] = target: Phosphatidylinositol 4,5-bisphosphate 3-kinase catalytic subunit alpha isoform (Homo sapiens, UniProt P42336); experiment: biochemical
Sequence of Phosphatidylinositol 4,5-bisphosphate 3-kinase catalytic subunit alpha isoform (P42336 whole entry, canonical isoform): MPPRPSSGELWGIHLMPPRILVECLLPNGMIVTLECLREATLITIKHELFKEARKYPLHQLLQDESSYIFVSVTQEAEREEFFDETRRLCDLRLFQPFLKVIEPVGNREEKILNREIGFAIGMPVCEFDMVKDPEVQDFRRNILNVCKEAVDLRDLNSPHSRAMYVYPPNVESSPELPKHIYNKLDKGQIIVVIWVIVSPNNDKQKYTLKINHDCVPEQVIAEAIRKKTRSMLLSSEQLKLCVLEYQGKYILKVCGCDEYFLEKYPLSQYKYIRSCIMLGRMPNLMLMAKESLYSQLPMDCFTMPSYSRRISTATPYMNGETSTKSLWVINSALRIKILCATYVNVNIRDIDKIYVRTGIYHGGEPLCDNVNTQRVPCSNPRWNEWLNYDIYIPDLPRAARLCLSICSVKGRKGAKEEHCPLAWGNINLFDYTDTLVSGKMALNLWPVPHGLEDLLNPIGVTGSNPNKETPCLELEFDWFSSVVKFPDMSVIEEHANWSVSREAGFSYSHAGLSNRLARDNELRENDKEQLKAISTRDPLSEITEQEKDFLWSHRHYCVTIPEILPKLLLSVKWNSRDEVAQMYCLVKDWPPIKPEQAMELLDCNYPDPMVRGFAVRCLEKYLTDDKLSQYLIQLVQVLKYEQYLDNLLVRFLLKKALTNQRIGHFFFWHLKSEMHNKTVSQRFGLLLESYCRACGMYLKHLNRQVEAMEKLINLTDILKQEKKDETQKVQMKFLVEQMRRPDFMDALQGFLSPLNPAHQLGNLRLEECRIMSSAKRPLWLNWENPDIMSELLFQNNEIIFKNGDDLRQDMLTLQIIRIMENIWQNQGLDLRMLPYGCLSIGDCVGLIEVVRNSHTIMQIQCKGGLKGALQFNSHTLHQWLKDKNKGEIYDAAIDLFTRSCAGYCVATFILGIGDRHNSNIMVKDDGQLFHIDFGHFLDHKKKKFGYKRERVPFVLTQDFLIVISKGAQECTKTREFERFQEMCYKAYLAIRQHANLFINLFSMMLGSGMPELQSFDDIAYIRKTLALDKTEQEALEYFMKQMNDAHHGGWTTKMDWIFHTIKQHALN
Description: Inhibition of human N-terminal poly-His tagged-PI3Kalpha expressed in Sf9 baculovirus system co-expressing p85alpha after 20 mins by AlphaScreen assay

[12] = target: Phosphatidylinositol 3-kinase catalytic subunit type 3 (Homo sapiens, UniProt Q8NEB9)
Sequence of Phosphatidylinositol 3-kinase catalytic subunit type 3 (Q8NEB9 whole entry): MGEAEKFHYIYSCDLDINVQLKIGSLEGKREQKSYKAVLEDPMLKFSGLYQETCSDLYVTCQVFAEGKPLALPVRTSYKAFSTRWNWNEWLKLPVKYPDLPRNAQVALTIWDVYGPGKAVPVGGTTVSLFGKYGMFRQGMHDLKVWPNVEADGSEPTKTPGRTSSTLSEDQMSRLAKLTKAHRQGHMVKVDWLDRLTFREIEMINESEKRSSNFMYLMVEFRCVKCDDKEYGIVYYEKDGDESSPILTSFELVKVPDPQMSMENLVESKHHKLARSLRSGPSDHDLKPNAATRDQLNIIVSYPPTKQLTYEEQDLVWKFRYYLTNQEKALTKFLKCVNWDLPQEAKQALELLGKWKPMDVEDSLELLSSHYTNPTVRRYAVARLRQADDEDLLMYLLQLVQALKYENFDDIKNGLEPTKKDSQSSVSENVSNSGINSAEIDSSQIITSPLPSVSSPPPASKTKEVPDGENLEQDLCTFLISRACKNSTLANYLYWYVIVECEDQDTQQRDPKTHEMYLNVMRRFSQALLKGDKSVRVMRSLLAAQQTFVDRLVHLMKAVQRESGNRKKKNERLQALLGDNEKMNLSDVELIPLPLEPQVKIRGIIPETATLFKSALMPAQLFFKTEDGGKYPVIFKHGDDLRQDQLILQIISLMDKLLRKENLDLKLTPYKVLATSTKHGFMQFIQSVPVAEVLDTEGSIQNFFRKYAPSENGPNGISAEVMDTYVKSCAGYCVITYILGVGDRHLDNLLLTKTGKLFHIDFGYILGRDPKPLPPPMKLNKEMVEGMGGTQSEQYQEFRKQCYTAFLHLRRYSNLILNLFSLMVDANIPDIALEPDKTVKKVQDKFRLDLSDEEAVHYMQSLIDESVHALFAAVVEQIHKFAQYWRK
Description: Inhibition of human VPS34 after 30 mins by fluorescence-based immunoassay

Sequence of Phosphatidylinositol 4,5-bisphosphate 3-kinase catalytic subunit gamma isoform (P48736 whole entry, canonical isoform): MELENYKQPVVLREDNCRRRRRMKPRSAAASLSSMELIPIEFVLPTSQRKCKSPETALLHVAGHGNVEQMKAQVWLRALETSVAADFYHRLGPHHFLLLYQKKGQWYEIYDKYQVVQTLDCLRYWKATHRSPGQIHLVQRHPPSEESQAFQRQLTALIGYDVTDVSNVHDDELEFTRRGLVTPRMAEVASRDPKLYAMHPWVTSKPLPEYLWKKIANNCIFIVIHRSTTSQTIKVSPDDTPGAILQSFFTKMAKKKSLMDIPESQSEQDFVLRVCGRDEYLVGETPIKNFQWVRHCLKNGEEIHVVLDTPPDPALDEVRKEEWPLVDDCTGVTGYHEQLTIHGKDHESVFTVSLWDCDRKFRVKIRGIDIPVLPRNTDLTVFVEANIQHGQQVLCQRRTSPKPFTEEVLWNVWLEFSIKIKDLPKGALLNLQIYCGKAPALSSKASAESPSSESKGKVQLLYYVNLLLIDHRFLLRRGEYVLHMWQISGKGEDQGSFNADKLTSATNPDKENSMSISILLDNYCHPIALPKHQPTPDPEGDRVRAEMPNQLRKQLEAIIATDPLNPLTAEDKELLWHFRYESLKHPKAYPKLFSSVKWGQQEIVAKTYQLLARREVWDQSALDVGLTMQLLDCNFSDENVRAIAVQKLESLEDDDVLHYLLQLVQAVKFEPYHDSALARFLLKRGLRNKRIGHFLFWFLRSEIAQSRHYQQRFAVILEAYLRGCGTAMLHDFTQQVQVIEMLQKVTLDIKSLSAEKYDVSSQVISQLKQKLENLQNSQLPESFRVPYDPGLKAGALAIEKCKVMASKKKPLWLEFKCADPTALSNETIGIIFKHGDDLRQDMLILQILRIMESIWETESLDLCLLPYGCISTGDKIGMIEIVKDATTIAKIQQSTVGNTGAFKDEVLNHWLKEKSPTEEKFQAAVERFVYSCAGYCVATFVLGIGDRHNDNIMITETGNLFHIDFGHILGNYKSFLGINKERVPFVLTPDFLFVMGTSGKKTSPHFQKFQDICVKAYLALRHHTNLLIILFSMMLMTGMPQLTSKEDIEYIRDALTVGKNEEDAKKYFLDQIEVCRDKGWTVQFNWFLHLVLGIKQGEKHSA

| SMILES | bioavailability [1] | Ki [2] | clearance (in vivo [3]) | MRT (in vivo [4]) | Vd (in vivo [5]) | Ki [6] | AUC (in vivo [7]) | microsomal CLint (in vitro) | Ki [8] | IC50 [9] | IC50 [10] | Ki [11] | IC50 [12] |
| --- | --- | --- | --- | --- | --- | --- | --- | --- | --- | --- | --- | --- | --- |
| COc1ccc(Nc2ncc(CN3CCC(S(C)(=O)=O)CC3)cc2-c2nc(C)nc(N)n2)cn1 | 18% | 0.009 µM | 41.7 mL/min/kg | 1.3 h | 2.9 L/kg | 0.005 µM | 0.33 µM·h | 20 µL/min/mg | 0.003 µM |  |  |  |  |
| Cc1nc(N)c(F)c(-c2cccnc2Nc2cccc3[nH]ncc23)n1 |  | 0.33 µM |  |  |  | 0.99 µM |  | 71 µL/min/mg | 0.81 µM | > 10 µM | > 1 µM | 0.93 µM |  |
| Cc1nc(N)cc(-c2cccnc2Nc2cccc3[nH]ncc23)n1 |  | 0.091 µM |  |  |  | 0.11 µM |  | 75 µL/min/mg | 0.37 µM | > 10 µM | > 1 µM | 0.15 µM |  |
| COc1ccc(Nc2ncc(CN3CCN(C(=O)N(C)C)CC3)cc2-c2nc(C)nc(N)n2)cn1 |  | 0.008 µM |  |  |  | 0.016 µM |  | 17 µL/min/mg | 0.003 µM | 1.4 µM |  | 0.084 µM |  |
| COc1ccc(Nc2nccnc2-c2nc(C)nc(N)n2)cn1 |  | 0.09 µM |  |  |  | 0.74 µM |  | 41 µL/min/mg | 0.3 µM |  | > 1 µM | 0.52 µM |  |
| COc1ccc(Nc2ncccc2-c2nc(C)nc3nc[nH]c23)cn1 |  | 0.012 µM |  |  |  | 0.045 µM |  | 68 µL/min/mg |  |  | > 1 µM |  |  |
| COc1ccc(Nc2ncc(CN3CCS(=O)(=O)CC3)cc2-c2nc(C)nc(N)n2)cn1 |  | 0.03 µM |  |  |  | 0.013 µM |  | 21 µL/min/mg | 0.013 µM | > 10 µM |  | 0.073 µM |  |
| COC(=O)N1CCN(Cc2cnc(Nc3ccc(OC)nc3)c(-c3nc(C)nc(N)n3)c2)CC1 |  | 0.018 µM |  |  |  | 0.018 µM |  | 20 µL/min/mg | 0.006 µM | 3.7 µM |  | 0.094 µM |  |
| COc1ccc(Nc2ccccc2-c2nc(C)nc(N)n2)cn1 |  | 0.38 µM |  |  |  | 0.58 µM |  | 190 µL/min/mg | 0.31 µM |  | > 1 µM | 0.64 µM |  |
| COCc1cnc(Nc2ccc(OC)nc2)c(-c2nc(C)nc(N)n2)c1 |  | 0.009 µM |  |  |  | 0.02 µM |  | 58 µL/min/mg | 0.01 µM | > 10 µM |  | 0.049 µM |  |
| COc1ccc(Nc2ncc(N3CCN(C)CC3)cc2-c2nc(C)nc(N)n2)cn1 |  | 0.021 µM |  |  |  | 0.007 µM |  | 23 µL/min/mg | 0.016 µM | 1.4 µM |  | 0.039 µM |  |
| Cc1nc(N)nc(-c2cccnc2Nc2cccc(O)c2)n1 |  |  |  |  |  | 0.003 µM |  | 80 µL/min/mg | 0.009 µM |  | > 1 µM |  |  |
| Cc1nc(N)cc(-c2cccnc2Nc2cccc(O)c2)n1 |  | 0.051 µM |  |  |  | 0.035 µM |  | 62 µL/min/mg | 0.056 µM | 0.36 µM | > 1 µM | 0.028 µM |  |
| Cc1cc(-c2cccnc2Oc2cccc3[nH]ccc23)nc(N)n1 |  | > 10 µM |  |  |  | > 10 µM |  | 218 µL/min/mg | > 10 µM | > 10 µM | > 1 µM | > 10 µM |  |
| Cc1nc(N)nc(-c2cccnc2Nc2cccc3[nH]ncc23)n1 |  | 0.088 µM |  |  |  | 0.051 µM |  | 65 µL/min/mg | 0.13 µM | > 10 µM | > 1 µM | 0.092 µM | > 9 µM |
| Cc1nc(-c2cccnc2Nc2cccc3n[nH]cc23)c2c[nH]nc2n1 |  | 0.45 µM |  |  |  | 2.3 µM |  | 56 µL/min/mg | 5 µM | > 10 µM | > 1 µM | 1.7 µM |  |

| SMILES | bioavailability [1] | Ki [2] | clearance (in vivo [3]) | MRT (in vivo [4]) | Vd (in vivo [5]) | Ki [6] | AUC (in vivo [7]) | microsomal CLint (in vitro) | Ki [8] | IC50 [9] | IC50 [10] | Ki [11] | IC50 [12] |
| --- | --- | --- | --- | --- | --- | --- | --- | --- | --- | --- | --- | --- | --- |
| Nc1cc(-c2cccnc2Nc2cccc3[nH]ncc23)nc(C(F)(F)F)n1 |  | 3.6 µM |  |  |  | 1.3 µM |  | 76 µL/min/mg | > 10 µM | > 10 µM | > 1 µM | 3.2 µM |  |
| COc1ccc(Nc2cccnc2-c2nc(C)nc(N)n2)cn1 |  | 0.48 µM |  |  |  | 0.61 µM |  | 96 µL/min/mg | 0.91 µM | > 10 µM |  | 1.3 µM |  |
| COc1ccc(Nc2ncc(Cc3ccc(S(C)(=O)=O)cc3)cc2-c2nc(C)nc(N)n2)cn1 | 2% | 0.007 µM | 30 mL/min/kg | 1.2 h | 2.1 L/kg |  | 0.04 µM·h | 59 µL/min/mg | 0.001 µM |  |  |  |  |
| COc1ccc(N(C)c2ncccc2-c2nc(C)nc(N)n2)cn1 |  | > 10 µM |  |  |  | > 10 µM |  | 41 µL/min/mg | > 10 µM | > 10 µM | > 1 µM | > 10 µM |  |
| Cc1cc(-c2cccnc2Nc2cccc(O)c2)nc(N)n1 |  | 2.6 µM |  |  |  | > 10 µM |  | 118 µL/min/mg | 6 µM | > 10 µM | > 1 µM | 4.9 µM |  |
| COc1ccc(Nc2nccnc2-c2cc(N)nc(C)n2)cn1 |  | 0.058 µM |  |  |  | 0.13 µM |  | 72 µL/min/mg | 0.13 µM |  | > 1 µM | 0.12 µM |  |
| Cc1ncnc(-n2c(Nc3cccc(O)c3)nc3ccccc32)n1 |  | 0.004 µM |  |  |  | 0.004 µM |  | 218 µL/min/mg | 0.003 µM | 0.007 µM | > 1 µM | 0.002 µM |  |
| Cc1nc(-c2cccnc2Nc2cccc3[nH]ncc23)c2nc[nH]c2n1 |  | 0.012 µM |  |  |  |  |  | 44 µL/min/mg | 0.35 µM |  | > 1 µM |  |  |
| COc1ccc(Nc2ncc(CC3CCN(S(C)(=O)=O)CC3)cc2-c2nc(C)nc(N)n2)cn1 | 3% | 0.008 µM | 46.7 mL/min/kg | 1 h | 2.7 L/kg | 0.015 µM | 0.04 µM·h | 111 µL/min/mg | 0.004 µM |  |  |  |  |
| COc1ccc(Nc2ncc(N3CCOCC3)cc2-c2nc(C)nc(N)n2)cn1 |  | 0.004 µM |  |  |  | 0.009 µM |  | 67 µL/min/mg | 0.004 µM | > 10 µM |  | 0.022 µM |  |
| c1cnc(Nc2cccc3n[nH]cc23)c(-c2ncnc3nc[nH]c23)c1 |  |  |  |  |  | 9.7 µM |  | 115 µL/min/mg | > 10 µM | > 10 µM |  | > 10 µM |  |
| Cc1nc(NCC#N)nc(-n2c(Nc3cccc(O)c3)nc3ccccc32)n1 |  | 0.069 µM |  |  |  | 0.043 µM |  | 394 µL/min/mg | 0.011 µM |  | 1.2 µM | 0.016 µM |  |
| COc1ccc(Nc2ncccc2-c2nc(C)nc(N)n2)cn1 |  | 0.029 µM |  |  |  | 0.023 µM |  | 51 µL/min/mg | 0.037 µM |  | > 1 µM |  |  |
| COc1ccc(Nc2ncc(CN3CCCN(S(C)(=O)=O)CC3)cc2-c2nc(C)nc(N)n2)cn1 |  | 0.046 µM |  |  |  | 0.061 µM |  | 242 µL/min/mg | 0.021 µM | > 10 µM |  | 0.033 µM |  |
| COc1ccc(Nc2ncncc2-c2nc(C)nc(N)n2)cn1 |  | 0.059 µM |  |  |  | 0.081 µM |  | 110 µL/min/mg | 0.062 µM |  | > 1 µM | 0.12 µM |  |
| Cc1nc(N)nc(-c2cccnc2Nc2cccc3[nH]ccc23)n1 |  | 0.045 µM |  |  |  | 0.009 µM |  | 110 µL/min/mg | 0.025 µM |  | > 1 µM |  | > 9 µM |

— ChEMBL document CHEMBL2163268, “Structure-based design of a novel series of potent, selective inhibitors of the class I phosphatidylinositol 3-kinases” (J Med Chem, 2012)
